Data: the NIST ThermoML archive (doi:10.1016/j.tca.2009.06.015)

Experiments:
[1] = refractive index (Na D-line) (dimensionless); xn = mol fraction of the nth substance listed; conditions: 101 kPa, Liquid, Standard Abbe refractometry
[2] = xn = mol fraction of the nth substance listed; conditions: 101 kPa, Liquid; for viscosity: Capillary tube (Ostwald / Ubbelohde) method; for mass density: Vibrating tube method

CCCC(C)O (stereo not given) [pentan-2-ol] + CC#N
Conditions | mass density, [2] [kg/m3] | refractive index, [1] | viscosity, [2] [mPa·s]
293.15 K, x2 = 0 | 809.29 | 1.406 | 4.298
293.15 K, x2 = 0.116 | 806.75 | 1.4035 | 2.544
293.15 K, x2 = 0.1727 | 805.46 | 1.402 | 2.093
293.15 K, x2 = 0.2827 | 802.79 | 1.3981 | 1.534
293.15 K, x2 = 0.3546 | 801.01 | 1.3951 | 1.262
293.15 K, x2 = 0.4458 | 798.66 | 1.3908 | 1.008
293.15 K, x2 = 0.5366 | 796.26 | 1.3858 | 0.81
293.15 K, x2 = 0.6488 | 793.09 | 1.3779 | 0.6391
293.15 K, x2 = 0.7671 | 789.52 | 1.3674 | 0.5048
293.15 K, x2 = 0.8793 | 786.03 | 1.3561 | 0.4119
293.15 K, x2 = 0.9578 | 783.59 | 1.3478 | 0.3705
298.15 K, x2 = 0 | 805.24 | 1.4045 | 3.478
298.15 K, x2 = 0.116 | 802.61 | 1.4012 | 2.17
298.15 K, x2 = 0.1727 | 801.25 | 1.3999 | 1.804
298.15 K, x2 = 0.2827 | 798.55 | 1.3965 | 1.362
298.15 K, x2 = 0.3546 | 796.68 | 1.3941 | 1.125
298.15 K, x2 = 0.4458 | 794.17 | 1.3901 | 0.9044
298.15 K, x2 = 0.5366 | 791.6 | 1.3848 | 0.7392
298.15 K, x2 = 0.6488 | 788.28 | 1.3764 | 0.5884
298.15 K, x2 = 0.7671 | 784.54 | 1.3657 | 0.4715
298.15 K, x2 = 0.8793 | 780.88 | 1.3548 | 0.391
298.15 K, x2 = 0.9578 | 778.28 | 1.3461 | 0.3537
303.15 K, x2 = 0 | 801.13 | 1.3724 | –
303.15 K, x2 = 0.116 | 798.39 | 1.3715 | 1.474
303.15 K, x2 = 0.1727 | 796.93 | 1.3707 | 1.288
303.15 K, x2 = 0.2827 | 794.05 | 1.3694 | 1.069
303.15 K, x2 = 0.3546 | 792.08 | 1.3684 | 0.9367
303.15 K, x2 = 0.4458 | 789.54 | 1.3666 | 0.7975
303.15 K, x2 = 0.5366 | 786.91 | 1.3641 | 0.6615
303.15 K, x2 = 0.6488 | 783.41 | 1.3608 | 0.5492
303.15 K, x2 = 0.7671 | 779.52 | 1.3561 | 0.4429
303.15 K, x2 = 0.8793 | 775.68 | 1.35 | 0.3617
303.15 K, x2 = 0.9578 | 772.96 | 1.3433 | 0.3311
308.15 K, x2 = 0 | 796.94 | 1.3703 | –
308.15 K, x2 = 0.116 | 794.1 | 1.3694 | 1.296
308.15 K, x2 = 0.1727 | 792.65 | 1.3687 | 1.15
308.15 K, x2 = 0.2827 | 789.63 | 1.3679 | 0.9576
308.15 K, x2 = 0.3546 | 787.6 | 1.367 | 0.846
308.15 K, x2 = 0.4458 | 784.92 | 1.3657 | 0.7168
308.15 K, x2 = 0.5366 | 782.17 | 1.3637 | 0.6057
308.15 K, x2 = 0.6488 | 778.55 | 1.3605 | 0.5051
308.15 K, x2 = 0.7671 | 774.47 | 1.3557 | 0.4111
308.15 K, x2 = 0.8793 | 770.45 | 1.3491 | 0.3442
308.15 K, x2 = 0.9578 | 767.48 | 1.3417 | 0.3202
